Measurements: patent US8314234B2, “Bicyclic pyrimidine kinase inhibitors” (Janssen Pharmaceutica N.V., priority 2006, dated 2012)

How the values were obtained:
A375 malignant melanoma = assay: Cell Proliferation Inhibition Assay (14C-thymidine incorporation), A375; type: cell-based; conditions: Homo sapiens, A-375
Text: (§1) The ability of a test compound to inhibit unregulated cell proliferation may be determined by measuring incorporation of ^14C-labelled thymidine into newly synthesized DNA within cell lines derived from carcinomas originating from several tissues. Accordingly, the anti-proliferative effect of a compound on cells with a variety of phenotypes may be determined.
(§2) Carcinoma cell lines include those such as HeLa cervical adenocarcinoma (American Type Culture Collection (ATCC), Virginia, Cat. #CCL-2), A375 malignant melanoma (ATCC CRL-1619), SK-OV-3 ovarian adenocarcinoma (ATCC HTB-77), HCT-116 colon carcinoma (CCL-247), PC-3 prostate adenocarcinoma (ATCC CRL-1435), and MDA-MB-231 (Xenogen Corp.)
(§3) The carcinoma cells are trypsinized and counted. The cells (3000-8000 count) are added to each well of a 96-well CytoStar tissue culture treated scintillating microplate (Amersham #RPNQ0160) in complete medium (100 μL) and the plate is then incubated in complete medium for 24 hrs at 37° C. in an inert atmosphere containing 5% CO2. Test compound (1 μL) in 100% DMSO is added to the plate test-wells with DMSO only added to control-wells. The plate is incubated in complete medium for a second 24 hr period at 37° C. in an atmosphere containing 5% CO2.
(§4) An aliquot of a solution of Methyl ^14C-thymidine (56 mC/mmol) (NEN #NEC568 or Amersham #CFA532) and complete medium (20 uL to provide 0.2 μCi/well) is then added to each well and the plate is incubated for a third 24 hr period at 37° C. in an atmosphere containing 5% CO2. The plate contents are then discarded, the plate is washed twice with PBS (200 μL) and then PBS (200 μL) is added to each well. The plate is sealed and the degree of methyl ^14C-thymidine incorporation is quantified on a Packard Top Count.

EGFR = biological target: T1, EGFR (Homo sapiens, UniProt P00533); assay: EGFR Kinase Assay; type: biochemical; conditions: test concentration of 2 μM
T1 construct: intracellular portion of EGFR started at nucleotide 2189 (corresponding to amino acid 667) and ended at the termination codon; made in house; host or cells: Sf9 insect cells (baculovirus)
T1 sequence (P00533 669-1210 limits assumed): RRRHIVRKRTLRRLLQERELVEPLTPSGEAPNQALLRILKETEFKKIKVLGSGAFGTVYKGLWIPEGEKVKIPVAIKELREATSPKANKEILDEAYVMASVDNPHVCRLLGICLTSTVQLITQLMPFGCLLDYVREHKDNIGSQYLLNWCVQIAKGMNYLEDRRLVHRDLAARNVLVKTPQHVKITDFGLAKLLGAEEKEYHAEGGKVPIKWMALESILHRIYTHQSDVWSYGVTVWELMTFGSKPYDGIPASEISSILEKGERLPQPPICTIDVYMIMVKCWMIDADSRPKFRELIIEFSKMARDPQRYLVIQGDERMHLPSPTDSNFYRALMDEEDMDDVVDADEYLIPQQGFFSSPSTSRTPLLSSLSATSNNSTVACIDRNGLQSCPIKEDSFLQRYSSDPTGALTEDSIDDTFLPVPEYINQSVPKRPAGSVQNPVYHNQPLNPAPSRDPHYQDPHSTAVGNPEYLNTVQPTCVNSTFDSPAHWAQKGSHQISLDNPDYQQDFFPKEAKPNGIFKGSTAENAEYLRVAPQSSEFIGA
Text: The EGFR kinase used was a fusion of Glutathione-S-Transferase (GST) and a PCR amplified intracellular portion of EGFR (NM_005228). The intracellular portion of EGFR started at nucleotide 2189 (corresponding to amino acid 667) and ended at the termination codon. The portion was PCR amplified with primers that added the lambda attB sequences to each end, recombined into an entry vector, then into a GST destination vector (as described in Gateway Technologies Manual by Invitrogen Corporation, Carlsbad, Calif.).
The destination vector was recombined in the DH10BAC strain of bacteria to produce a bacmid. The bacmid was transfected into Sf9 cells and the supernatant containing the baculovirus was collected. The GSTEGFR protein was purified using large cultures of Sf9 cells infected with stock virus. After an appropriate period of time, the cells were collected and lysed. The GSTEGFR was then purified from the lysate on Glutathione-Sepharose columns (as described by Amersham Biosciences, Buckinghamshire, United Kingdom).
The EGFR substrate was prepared by biotinylating polyGluTyr (128 mg) (Sigma, St. Louis, Mo.) in a 1×PBS buffer incubated together with a 12-fold molar excess of Sulfo-NHS-LC-Biotin on ice for at least 2 hrs. The free biotin was separated from the biotinylated polyGluTyr on a gel filtration column.
A mixture of a 10× kinase buffer (500 mM Tris at pH 8.0, 100 mM Magnesium Chloride and 1 mM Sodium Vanadate), DTT (1 mM final from 500 mM stock), ATP (5 μM final from 10 mM stock), biotinylated polyGluTyr (10 μg/μL stock), γ-^33P ATP (10 μCi/μL stock) and water was added to each well (90 μL/well) of a Streptavidin Flashplate (Perkin Elmer, Wellesley, Mass.).
Test compound in 100% DMSO (2 μL) was added to the appropriate wells. Diluted GSTEGFR (1:300 dilution in 50 mM Tris at pH 8.0 and 0.1% bovine serum albumin) (10 μL) was added to the wells to initiate the reactions.
The plates were incubated at 30° C. for 1 hr with shaking. The reacted contents were removed and the plates were sequentially washed three times with a 1×PBS stop buffer (300 μL without Magnesium and Calcium) and 100 mM EDTA. After the final wash, the same stop buffer (200 μL) was added to the wells. The plates were then sealed and read on the TopCount scintillation counter.
Test compounds were assayed in triplicate at 16 concentrations at half-log dilutions starting at 200 uM. A maximum and minimum signal for the assay was determined on each plate. The percent inhibition of a test compound was calculated according to the formula
For a series of test concentrations, the IC50 was derived by graphing percent inhibition against the log of the concentrations tested for a given compound. The percent inhibition results are shown in Table 1 at a test concentration of 2 μM. For those compounds with an IC50, the IC50 value is shown in parentheses.

CDK2 = biological target: T2, CDK2 (Homo sapiens, UniProt P24941); assay: CDK-2 screening assay; type: biochemical
T2 construct: purchased Upstate Biotech, Lake Placid, N.Y
Experimental: (§5) 70 μL of the kinase reaction mixture was dispensed into the well of a streptavidin coated FlashPlate™ (Cat. #SMP103, NEN, Boston, Mass.).
(§6) Test compound stock in 100% DMSO (1 μL) was added to the wells resulting in a final concentration of 1% DMSO in the reaction with a 100 μL final reaction volume. Each enzyme was diluted in 50 mM Tris-HCl pH=8.0, 0.1% BSA and 30 μL was added to each well to initiate the reaction. The reaction was incubated for one hour at 30° C. At the end of the 1 hr incubation, the reaction was terminated by aspirating the mixture from the plate and washing the wells twice with PBS containing 100 mM EDTA. The biotinylated peptide substrate became immobilized on the Flashplate and the incorporation of ^33P-γ-ATP was measured by reading the plate on a scintillation counter. Inhibition of the enzymatic activity was measured by observing a reduced amount of ^33P-γ-ATP incorporated into the immobilized peptide.
The CDK2 enzyme in complex with cyclin A is commercially available (Upstate Biotech, Lake Placid, N.Y.).
(§7) A maximum and minimum signal for the assay was determined on each plate. The percent inhibition of a test compound was calculated according to the formula: […]
(§8) The term “ND” means “not determined.”

VEGFR2 = VEGFR2 (Rattus norvegicus, UniProt O08775); assay: VEGFR2 screening assay; type: biochemical
Chain of VEGFR2 (O08775 786-1343): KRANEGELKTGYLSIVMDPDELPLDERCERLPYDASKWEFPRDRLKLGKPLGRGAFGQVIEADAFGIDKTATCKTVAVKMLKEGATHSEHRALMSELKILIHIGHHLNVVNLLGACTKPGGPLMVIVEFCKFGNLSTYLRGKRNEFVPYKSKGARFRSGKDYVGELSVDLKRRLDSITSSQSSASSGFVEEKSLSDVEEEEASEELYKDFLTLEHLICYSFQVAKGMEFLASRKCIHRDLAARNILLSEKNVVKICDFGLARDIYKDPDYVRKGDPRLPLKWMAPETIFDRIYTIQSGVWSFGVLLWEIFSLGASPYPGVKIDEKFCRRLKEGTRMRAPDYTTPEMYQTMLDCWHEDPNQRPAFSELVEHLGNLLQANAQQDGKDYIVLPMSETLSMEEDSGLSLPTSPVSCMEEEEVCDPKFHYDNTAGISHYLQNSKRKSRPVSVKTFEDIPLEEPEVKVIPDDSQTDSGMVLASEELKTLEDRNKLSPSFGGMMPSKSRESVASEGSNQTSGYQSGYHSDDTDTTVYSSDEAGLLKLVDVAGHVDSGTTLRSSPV
Experimental: A kinase reaction mixture was prepared containing 50 mM Tris-HCl pH=8, 10 mM MgCl2, 0.1 mM […], 1 mM DTT, 10 μM ATP, 0.025 μM biotinylated histone-H1 peptide substrate and 0.2 μCuries per well ^33P-γ-ATP (2000-3000 Ci/mmol). 70 μL of the kinase reaction mixture was dispensed into the well of a streptavidin coated FlashPlate™ (Cat. #SMP103, NEN, Boston, Mass.).
as §6
The VEGF-R2 enzyme is a fusion protein containing a polyhistidine tag at the N terminus followed by amino acids 786 to 1343 of the rat VEGF-R2 kinase domain (Accession number U93306). The assay used 150 ng of the N-terminal biotinylated peptide biotin-[…]-amide SEQ ID NO: 2) (VEGF-R2) per well.
as §7
For a series of test concentrations, the IC50 was derived by graphing percent inhibition against the log of the concentrations tested for a given compound with results shown in Table 2. For those compounds without an IC50, the inhibition values in percent are shown at a test concentration of 2 μM. The term “ND” means “not determined.”

[1] = tested on: HeLa cervical adenocarcinoma; assay: Cell Proliferation Inhibition Assay (14C-thymidine incorporation), HeLa; type: cell-based; conditions: Homo sapiens
Text: as §1, §2, §3, §4

HCT-116 colon carcinoma = assay: Cell Proliferation Inhibition Assay (14C-thymidine incorporation), HCT-116; type: cell-based; conditions: Homo sapiens
Text: as §1, §2, §3, §4

CDK1 = biological target: T3, CDK1 (Homo sapiens, UniProt P06493); assay: CDK-1 screening assay; type: biochemical
T3 construct: purchased New England Biolabs, Beverly, Mass; 6020; host or cells: insect cells
T3 sequence (P06493 whole entry): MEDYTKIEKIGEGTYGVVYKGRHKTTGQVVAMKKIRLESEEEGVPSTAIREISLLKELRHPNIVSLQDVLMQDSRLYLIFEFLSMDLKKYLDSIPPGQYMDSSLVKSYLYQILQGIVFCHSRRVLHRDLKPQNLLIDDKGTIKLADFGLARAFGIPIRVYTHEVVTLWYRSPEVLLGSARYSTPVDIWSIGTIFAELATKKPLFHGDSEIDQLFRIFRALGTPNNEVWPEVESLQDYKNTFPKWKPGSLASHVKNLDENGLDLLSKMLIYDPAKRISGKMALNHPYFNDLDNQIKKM
T3 sequence (P14635 whole entry partner): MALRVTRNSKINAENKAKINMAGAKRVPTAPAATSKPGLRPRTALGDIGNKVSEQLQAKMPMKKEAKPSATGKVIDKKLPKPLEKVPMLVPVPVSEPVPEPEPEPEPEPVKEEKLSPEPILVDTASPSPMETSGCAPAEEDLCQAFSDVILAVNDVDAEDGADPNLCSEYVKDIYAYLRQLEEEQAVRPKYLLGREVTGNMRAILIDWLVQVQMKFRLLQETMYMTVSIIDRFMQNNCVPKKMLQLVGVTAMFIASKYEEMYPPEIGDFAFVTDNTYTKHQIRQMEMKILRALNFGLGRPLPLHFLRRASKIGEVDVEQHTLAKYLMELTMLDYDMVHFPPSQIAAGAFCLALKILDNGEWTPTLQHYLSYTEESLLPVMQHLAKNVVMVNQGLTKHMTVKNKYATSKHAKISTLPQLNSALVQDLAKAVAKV
Experimental: as §5, §6, §7, §8

SMILES	IC50 (A375 malignant melanoma) [µM]	inhibition at 2 µM (EGFR) [%]	IC50 (CDK2) [µM]	IC50 (VEGFR2) [µM]	IC50 [1] [µM]	IC50 (HCT-116 colon carcinoma) [µM]	IC50 (CDK1) [µM]
CC(=O)n1ncc2c(Nc3ccc(S(=O)(=O)NCCO)cc3)nc(Nc3ccc(S(=O)(=O)NCCO)cc3)nc21 [Cpd 21, 1-acetyl-N^4,N^6-bis-{4-[(2-hydroxy-ethyl)-amino-sulfonyl]-phenyl}-1H-pyrazolo[3,4-d]pyrimidine-4,6-diamine]	100	53	0.533	13.2	100	100	1.87
O=S(=O)(NCCO)c1ccc(Nc2nc(Nc3ccccc3)c3cnoc3n2)cc1 [Cpd 20, N-(2-hydroxy-ethyl)-4-(4-phenylamino-isoxazolo[5,4-d]pyrimidin-6-ylamino)-benzenesulfonamide]	100	26	4.4	23.1	25	100	> 100
NS(=O)(=O)c1ccc(Nc2nc(Nc3ccc(S(N)(=O)=O)cc3)c3cnoc3n2)cc1 [Cpd 5, N^4,N^6-bis-[4-(amino-sulfonyl)-phenyl]-isoxazolo[5,4-d]pyrimidine-4,6-diamine]	27	39	0.443	2.45	70.7	38.2	2.53
c1cc2cc(Nc3nc(Nc4ccc5[nH]ccc5c4)c4cn[nH]c4n3)ccc2[nH]1 [Cpd 13, N^4,N^6-bis-(1H-indol-5-yl)-1H-pyrazolo[3,4-d]pyrimidine-4,6-diamine]	1.9	-4	0.494	3.67	4	2.6	2.59
NS(=O)(=O)c1ccc(Nc2nc(Nc3ccccn3)c3cn[nH]c3n2)cc1 [Cpd 8, 4-[4-(pyridin-2-ylamino)-1H-pyrazolo[3,4-d]pyrimidin-6-ylamino]-benzenesulfonamide]	100	25	7.62	6.98	100	100	24.7
NS(=O)(=O)c1ccc(Nc2nc(Nc3ccccn3)c3cnoc3n2)cc1 [Cpd 7, 4-[4-(pyridin-2-ylamino)-isoxazolo[5,4-d]pyrimidin-6-ylamino]-benzenesulfonamide]	100	21	> 10	> 100	100	10	> 100
O=S(=O)(NCCO)c1ccc(Nc2nc(Nc3ccc(S(=O)(=O)NCCO)cc3)c3cnn(C4CCCCC4)c3n2)cc1 [Cpd 17, 1-cyclohexyl-N^4,N^6-bis-{4-[(2-hydroxy-ethyl)-amino-sulfonyl]-phenyl}-1H-pyrazolo[3,4-d]pyrimidine-4,6-diamine]	100	22	3.88	90	100	100	12
O=S(=O)(NCCO)c1ccc(Nc2nc(Nc3ccc(S(=O)(=O)NCCO)cc3)c3cn[nH]c3n2)cc1 [Cpd 3, N^4,N^6-bis-{4-[(2-hydroxy-ethyl)-amino-sulfonyl]-phenyl}-1H-pyrazolo[3,4-d]pyrimidine-4,6-diamine]	32.6	78	0.018	0.328	10	100	0.079
CC(C)(C)n1ncc2c(Nc3ccc(S(=O)(=O)NCCO)cc3)nc(Nc3ccc(S(=O)(=O)NCCO)cc3)nc21 [Cpd 18, 1-t-butyl-N^4,N^6-bis-{4-[(2-hydroxy-ethyl)-amino-sulfonyl]-phenyl}-1H-pyrazolo[3,4-d]pyrimidine-4,6-diamine]	1.2	23	0.493	> 100	100	100	2.79
c1cc2[nH]ncc2cc1Nc1nc(Nc2ccc3[nH]ncc3c2)c2cn[nH]c2n1 [Cpd 9, N^4,N^6-bis-(1H-indazol-5-yl)-1H-pyrazolo[3,4-d]pyrimidine-4,6-diamine]	100	47	0.04	0.43	100	100	0.145
O=S(=O)(NCCO)c1ccc(Nc2nc(Nc3ccc(S(=O)(=O)NCCO)cc3)c3cnoc3n2)cc1 [Cpd 19, N^4,N^6-bis-{4-[(2-hydroxy-ethyl)-amino-sulfonyl]-phenyl}-isoxazolo[5,4-d]pyrimidine-4,6-diamine]	100	12	9.18	75	100	100	> 100
